Results: US8658661B2, “Oxadiazole inhibitors of leukotriene production” (Boehringer Ingelheim International GmbH, priority 2010, dated 2014)

Legend:
[1] = target: T1, recombinant human FLAP protein (Homo sapiens, UniProt P20292); assay: FLAP binding assay (SPA, displacement of [125I]L-691,831); details: membranes of sf9 cells expressing recombinant human FLAP; [125I]L-691,831 probe; read-out: FLAP binding IC50
T1 construct: made in house; host or cells: Sf9 insect cells (100,000×g membrane pellet used)
T1 sequence (P20292 1-161): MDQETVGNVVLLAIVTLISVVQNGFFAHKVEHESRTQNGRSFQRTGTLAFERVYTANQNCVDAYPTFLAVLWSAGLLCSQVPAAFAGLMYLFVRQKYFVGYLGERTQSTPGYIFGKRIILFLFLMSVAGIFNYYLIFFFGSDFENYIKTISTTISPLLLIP
In short: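 Membranes from sf9 cells expressing human FLAP in pH 7.5 Tris buffer (MgCl2, EDTA, PMSF). Non-specific binding defined with 10 μM cold L-691,831.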

[2] = system: synthesis of LTB4 in human whole blood; assay: Human whole blood assay (inhibition of LTB4 synthesis, calcimycin stimulated); format: cell-based; details: heparinized human whole blood, calcimycin 20 μM, plasma LTB4
In short: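 Heparinized human whole blood preincubated with compound 15 min at 37 °C, then stimulated with calcimycin (20 μM final) for 30 min at 37 °C. Plasma LTB4 measured after low-speed centrifugation by antibody-based homogeneous time-resolved fluorescence.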

| SMILES | IC50 [1] | IC50 [2] |
| --- | --- | --- |
| CC(C)C(C)(c1ccc(-c2cnc(N)nc2)cc1)c1noc(-c2cnn(CC(C)(C)O)c2)n1 (stereo not drawn) [Example 159, 1-[4-(3-{2-[4-(2-aminopyrimidin-5-yl)phenyl]-3-methylbutan-2-yl}-1,2,4-oxadiazol-5-yl)-1H-pyrazol-1-yl]-2-methylpropan-2-ol] | 4.6 nM | 83 nM |
| CC(C)C(C)(c1ccc(-c2cnc(N)nc2)cc1)c1noc(-c2cnn(C(C)(C)C(=O)O)c2)n1 (stereo not drawn) [Example 160, 2-[4-(3-{2-[4-(2-aminopyrimidin-5-yl)phenyl]-3-methylbutan-2-yl}-1,2,4-oxadiazol-5-yl)-1H-pyrazol-1-yl]-2-methylpropanoic acid] | 9 nM | > 5000 nM |
| CC(C)C(C)(c1ccc(-c2cnc(N)nc2)cc1)c1noc(-c2cnn(C3COC3)c2)n1 (stereo not drawn) [Example 161, 5-[4-(3-methyl-2-{5-[1-(oxetan-3-yl)-1H-pyrazol-4-yl]-1,2,4-oxadiazol-3-yl}butan-2-yl)phenyl]pyrimidin-2-amine] | 2 nM | 36 nM |
| COCCNc1cnc(-c2nc(C(C)(c3ccc(-c4cnc(N)nc4)cc3)C(C)C)no2)cn1 (stereo not drawn) [Example 162, 5-{4-[2-(5-{5-[(2-methoxyethyl)amino]pyrazin-2-yl}-1,2,4-oxadiazol-3-yl)-3-methylbutan-2-yl]phenyl}pyrimidin-2-amine] | 2.3 nM | 41 nM |
| CC(C)C(C)(c1ccc(-c2cnc(N)nc2)cc1)c1noc(-c2cnc(N3CCN(C)CC3)cn2)n1 (stereo not drawn) [Example 163, 5-[4-(3-methyl-2-{5-[5-(4-methylpiperazin-1-yl)pyrazin-2-yl]-1,2,4-oxadiazol-3-yl}butan-2-yl)phenyl]pyrimidin-2-amine] | 0.74 nM | 30 nM |
| CC(C)C(C)(c1ccc(-c2cnc(N)nc2)cc1)c1noc(-c2cnn(CC(C)(C)C(=O)O)c2)n1 (stereo not drawn) [Example 164, 3-[4-(3-{2-[4-(2-aminopyrimidin-5-yl)phenyl]-3-methylbutan-2-yl}-1,2,4-oxadiazol-5-yl)-1H-pyrazol-1-yl]-2,2-dimethylpropanoic acid] | 1.4 nM | 2700 nM |
| CC(C)C(C)(c1ccc(-c2cnc(N)nc2)cc1)c1noc(-c2cccc(=O)n2C)n1 (stereo not drawn) [Example 165, 6-(3-{2-[4-(2-aminopyrimidin-5-yl)phenyl]-3-methylbutan-2-yl}-1,2,4-oxadiazol-5-yl)-1-methylpyridin-2(1H)-one] | 2.1 nM | 89 nM |
| CC(C)C(C)(c1ccc(-c2cnc(N)nc2)cc1)c1noc(C2CCCC(=O)N2C)n1 (stereo not drawn) [Example 166, 6-(3-{2-[4-(2-aminopyrimidin-5-yl)phenyl]-3-methylbutan-2-yl}-1,2,4-oxadiazol-5-yl)-1-methylpiperidin-2-one] | 26 nM | 2400 nM |
| CC(C)C(C)(c1ccc(-c2cnc(N)nc2)cc1)c1noc(C2CCCC(=O)N2)n1 (stereo not drawn) [Example 167, 6-(3-{2-[4-(2-aminopyrimidin-5-yl)phenyl]-3-methylbutan-2-yl}-1,2,4-oxadiazol-5-yl)piperidin-2-one] | 46 nM | 4300 nM |
| CC(C)C(C)(c1ccc(-c2cnc(N)nc2)cc1)c1noc(N2CCS(=O)(=O)CC2)n1 (stereo not drawn) [Example 168, 5-(4-{1-[5-(1,1-Dioxo-1lambda6-thiomorpholin-4-yl)-[1,2,4]oxadiazol-3-yl]-1,2-dimethyl-propyl}-phenyl)-pyrimidin-2-ylamine] | 21 nM | 390 nM |
| CC(=O)N1CCN(c2nc(C(C)(c3ccc(-c4cnc(N)nc4)cc3)C(C)C)no2)CC1 (stereo not drawn) [Example 169, 1-[4-(3-{1-[4-(2-Amino-pyrimidin-5-yl)-phenyl]-1,2-dimethyl-propyl}-[1,2,4]oxadiazol-5-yl)-piperazin-1-yl]-ethanone] | 14 nM | 370 nM |
| CC(C)C(C)(c1ccc(-c2cnc(N)nc2)cc1)c1noc(N2CCN(S(C)(=O)=O)CC2)n1 (stereo not drawn) [Example 170, 5-(4-{1-[5-(4-Methanesulfonyl-piperazin-1-yl)-[1,2,4]oxadiazol-3-yl]-1,2-dimethyl-propyl}-phenyl)-pyrimidin-2-ylamine] | 14 nM | 310 nM |
| CC(C)C(C)(c1ccc(-c2cnc(N)nc2)cc1)c1noc(NCCN(C)C)n1 (stereo not drawn) [Example 171, N-(3-{1-[4-(2-Amino-pyrimidin-5-yl)-phenyl]-1,2-dimethyl-propyl}-[1,2,4]oxadiazol-5-yl)-N′,N′-dimethyl-ethane-1,2-diamine] | 220 nM | 1900 nM |
| CN(C)C(=O)Cn1cc(-c2nc([C@@](C)(c3ccc(-c4ccc(N)nc4)cc3)C3CC3)no2)cn1 [Example 172, 2-[4-(3-{(R)-1-[4-(6-Amino-pyridin-3-yl)-phenyl]-1-cyclopropyl-ethyl}-[1,2,4]oxadiazol-5-yl)-pyrazol-1-yl]-N,N-dimethyl-acetamide] | 1.1 nM | 66 nM |
| CC(C)(O)Cn1cc(-c2nc([C@@](C)(c3ccc(-c4cnc(N)nc4)cc3)C3CC3)no2)cn1 [Example 174, 1-[4-(3-{(R)-1-[4-(2-Amino-pyrimidin-5-yl)-phenyl]-1-cyclopropyl-ethyl}-[1,2,4]oxadiazol-5-yl)-pyrazol-1-yl]-2-methyl-propan-2-ol] | 1.2 nM | 19 nM |
| CN(C)C(=O)Cn1cc(-c2nc([C@@](C)(c3ccc(-c4cnc(N)cn4)cc3)C3CC3)no2)cn1 [Example 176, 2-[4-(3-{(R)-1-[4-(5-Amino-pyrazin-2-yl)-phenyl]-1-cyclopropyl-ethyl}-[1,2,4]oxadiazol-5-yl)pyrazol-1-yl]-N,N-dimethyl-acetamide] | 1.2 nM | 73 nM |
| Cc1cc(-c2ccc([C@](C)(c3noc(-c4cnn(CC(=O)N(C)C)c4)n3)C3CC3)cc2)cnc1N [Example 178, 2-[4-(3-{(R)-1-[4-(6-Amino-5-methyl-pyridin-3-yl)-phenyl]-1-cyclopropyl-ethyl}-[1,2,4]oxadiazol-5-yl)-pyrazol-1-yl]-N,N-dimethyl-acetamide] | 2.2 nM | 180 nM |
| Cc1cc(-c2ccc([C@](C)(c3noc(-c4cnn(CC(C)(C)O)c4)n3)C3CC3)cc2)cnc1N [Example 179, 1-[4-(3-{(R)-1-[4-(6-Amino-5-methyl-pyridin-3-yl)-phenyl]-1-cyclopropyl-ethyl}-[1,2,4]oxadiazol-5-yl)-pyrazol-1-yl]-2-methyl-propan-2-ol] | 4.6 nM | 49 nM |

Results, then the molecule that gave them:

| IC50 [1] | IC50 [2] | SMILES |
| --- | --- | --- |
| 2.4 nM | 31 nM | CC(C)(O)Cn1cc(-c2nc([C@@](C)(c3ccc(-c4ccc(N)nc4)cc3)C3CC3)no2)cn1 [Example 173, 1-[4-(3-{(R)-1-[4-(6-Amino-pyridin-3-yl)-phenyl]-1-cyclopropyl-ethyl}-[1,2,4]oxadiazol-5-yl)-pyrazol-1-yl]-2-methyl-propan-2-ol] |
| 2.2 nM | 39 nM | CC(C)(O)Cn1cc(-c2nc([C@@](C)(c3ccc(-c4cnc(N)cn4)cc3)C3CC3)no2)cn1 [Example 175, 1-[4-(3-{(R)-1-[4-(5-Amino-pyrazin-2-yl)-phenyl]-1-cyclopropyl-ethyl}-[1,2,4]oxadiazol-5-yl)-pyrazol-1-yl]-2-methyl-propan-2-ol] |
| 8.9 nM | 66 nM | Cc1nc(-c2ccc([C@](C)(c3noc(-c4cnn(CC(=O)N(C)C)c4)n3)C3CC3)cc2)cnc1N [Example 177, 2-[4-(3-{(R)-1-[4-(5-Amino-6-methyl-pyrazin-2-yl)-phenyl]-1-cyclopropyl-ethyl}-[1,2,4]oxadiazol-5-yl)-pyrazol-1-yl]-N,N-dimethyl-acetamide] |
| 2.9 nM | 29 nM | Cc1nc(-c2ccc([C@](C)(c3noc(-c4cnn(CC(C)(C)O)c4)n3)C3CC3)cc2)cnc1N [Example 180, 1-[4-(3-{(R)-1-[4-(5-Amino-6-methyl-pyrazin-2-yl)-phenyl]-1-cyclopropyl-ethyl}-[1,2,4]oxadiazol-5-yl)-pyrazol-1-yl]-2-methyl-propan-2-ol] |
| 3.3 nM | 51 nM | Cn1cc(-c2nc([C@@](C)(c3ccc(-c4ccc(N)nc4)cc3)C3CC3)no2)cn1 [Example 181, 5-(4-{(R)-1-Cyclopropyl-1-[5-(1-methyl-1H-pyrazol-4-yl)-[1,2,4]oxadiazol-3-yl]-ethyl}-phenyl)-pyridin-2-ylamine] |
| 3.1 nM | 14 nM | CN(C)CCn1cc(-c2nc([C@@](C)(c3ccc(-c4cnc(N)nc4)cc3)C3CC3)no2)cn1 [Example 182, 5-[4-((R)-1-Cyclopropyl-1-{5-[1-(2-dimethylamino-ethyl)-1H-pyrazol-4-yl]-[1,2,4]oxadiazol-yl}-ethyl)-phenyl]-pyrimidin-2-ylamine] |
| 5.5 nM | 39 nM | COCCn1cc(-c2nc([C@@](C)(c3ccc(-c4ccc(N)nc4)cc3)C3CC3)no2)cn1 [Example 183, 5-[4-((R)-1-Cyclopropyl-1-{5-[1-(2-methoxy-ethyl)-1H-pyrazol-4-yl]-[1,2,4]oxadiazol-3-yl}-ethyl)-phenyl]-pyridin-2-ylamine] |
| 2 nM | 23 nM | Cn1cc(-c2nc([C@@](C)(c3ccc(-c4cnc(N)cn4)cc3)C3CC3)no2)cn1 [Example 184, 5-(4-{(R)-1-Cyclopropyl-1-[5-(1-methyl-1H-pyrazol-4-yl)-[1,2,4]oxadiazol-3-yl]-ethyl}-phenyl)-pyrazin-2-ylamine] |
| 1.9 nM | 28 nM | Cc1cc(-c2ccc([C@](C)(c3noc(-c4cnn(C)c4)n3)C3CC3)cc2)cnc1N [Example 185, 5-(4-{(R)-1-Cyclopropyl-1-[5-(1-methyl-1H-pyrazol-4-yl)-[1,2,4]oxadiazol-3-yl]-ethyl}-phenyl)-3-methyl-pyridin-2-ylamine] |
